{"source": "paper PMC6033010", "about": "“A Targeted LC‐MS Strategy for Low‐Abundant HLA Class‐I‐Presented Peptide Detection Identifies Novel Human Papillomavirus T‐Cell Epitopes” (Proteomics, 2018)", "molecular_target": "T1, HLA‐A2 (Homo sapiens, UniProt P04439, D140Y/D185E/D98H/E176V/E277Q/G131W/G231S/I119V/I121R/I166T/I218V/L300P/L318F/N151K/N90K/P208A/P217A/Q86G/Q94H/R138H/R169H/T345S)", "T1 construct": "host or cells: BSM cells (HLA-A2+, HPV16-negative suspension cell line)", "test": "In vitro competition-based cellular binding assay", "settings": "acid-stripped BSM cells, β2M, 150 nM fluorescein-labeled reference peptide FLPSDC(Fl)FPSV, test peptide 0.78–100 μM, overnight 4 °C, flow cytometry; mean of at least three experimental replicates; read-out: Experimental binding affinity [IC50(μM)]", "procedure": "In Vitro Competition Based Binding Assays: In vitro competition‐based binding assays were performed as described in ref. 30. In brief, BSM cells were treated with citric acid buffer to strip off naturally presented peptides. Cells were incubated overnight at 4 °C with β2M, a constant concentration (150 nM) of fluorescein‐labeled HLA‐A2‐binding reference peptide (FLPSDC(Fl)FPSV), and six different concentrations (0.78 –100 μM) of the respective investigated non‐labeled peptide, competing for HLA‐binding. Fluorescence was measured by flow cytometry and data processed with FlowJo 10 (TreeStar, Ashland, OR, USA). A logistic four‐parametric non‐linear regression calculation using SigmaPlot 13 (Systat‐Software, San José, CA, USA) was conducted to calculate binding affinity (IC50). […] The assay was performed with at least three biological replicates for binders and two for non‐binders.", "note": "Where a SMILES comes first, the peptide text is derived from it."}
{"smiles": "CC[C@H](C)[C@H](NC(=O)CNC(=O)[C@H](CC(C)C)NC(=O)[C@@H](NC(=O)CNC(=O)[C@H](CCSC)NC(=O)[C@H](CC(C)C)NC(=O)[C@H](CC(C)C)NC(=O)[C@H](CC(=O)O)NC(=O)[C@@H](N)CCC(=O)O)[C@@H](C)O)C(=O)N[C@H](C(=O)O)C(C)C", "note": "[E7_80–90] (H-EDLLMGTLGIV-OH)", "values": [{"measurement": "IC50", "value": 14.2, "unit": "µM"}]}
{"smiles": "CSCC[C@H](NC(=O)[C@H](CC(C)C)NC(=O)[C@H](CC(C)C)NC(=O)[C@H](CC(=O)O)NC(=O)[C@H](CCC(=O)O)NC(=O)[C@H](CC(C)C)NC(=O)[C@@H](NC(=O)[C@@H](N)CCCNC(=N)N)[C@@H](C)O)C(=O)NCC(=O)N[C@H](C(=O)N[C@@H](CC(C)C)C(=O)O)[C@@H](C)O", "note": "[E7_77–87] (H-RTLEDLLMGTL-OH)", "values": [{"measurement": "IC50", "value": 2.69, "unit": "µM"}]}
{"smiles": "CSCC[C@H](NC(=O)[C@@H](N)Cc1ccc(O)cc1)C(=O)N[C@@H](CC(C)C)C(=O)N[C@@H](CC(=O)O)C(=O)N[C@@H](CC(C)C)C(=O)N[C@@H](CCC(N)=O)C(=O)N1CCC[C@H]1C(=O)N[C@@H](CCC(=O)O)C(=O)O", "note": "[E7_11–18] (H-YMLDLQPE-OH)", "values": [{"measurement": "IC50", "value": 8.07, "unit": "µM"}]}
{"smiles": "CC[C@H](C)[C@H](NC(=O)CNC(=O)[C@H](CC(C)C)NC(=O)[C@@H](NC(=O)CNC(=O)[C@H](CCSC)NC(=O)[C@H](CC(C)C)NC(=O)[C@H](CC(C)C)NC(=O)[C@@H](N)CC(=O)O)[C@@H](C)O)C(=O)N[C@H](C(=O)O)C(C)C", "note": "[E7_81–90] (H-DLLMGTLGIV-OH)", "values": [{"measurement": "IC50", "value": 81, "unit": "µM"}]}
{"smiles": "CC[C@H](C)[C@H](NC(=O)[C@H](CC(=O)O)NC(=O)[C@H](Cc1c[nH]cn1)NC(=O)[C@@H](NC(=O)[C@@H](NC(=O)[C@@H](NC(=O)[C@H](CCC(N)=O)NC(=O)[C@H](CC(C)C)NC(=O)[C@@H](N)CCC(=O)O)[C@@H](C)O)[C@@H](C)O)[C@@H](C)CC)C(=O)O", "note": "[E6_25–33] (H-ELQTTIHDI-OH)", "values": [{"measurement": "IC50", "value": 36.9, "unit": "µM"}]}
{"smiles": "CSCC[C@H](NC(=O)[C@H](CC(C)C)NC(=O)[C@H](CC(C)C)NC(=O)[C@H](CC(=O)O)NC(=O)[C@H](CCC(=O)O)NC(=O)[C@H](CC(C)C)NC(=O)[C@@H](N)[C@@H](C)O)C(=O)NCC(=O)N[C@H](C(=O)O)[C@@H](C)O", "note": "[E7_78–86] (H-TLEDLLMGT-OH)", "values": [{"measurement": "IC50", "value": 64.6, "unit": "µM"}]}
{"smiles": "CSCC[C@H](NC(=O)[C@@H](N)Cc1ccc(O)cc1)C(=O)N[C@@H](CC(C)C)C(=O)N[C@@H](CC(=O)O)C(=O)N[C@@H](CC(C)C)C(=O)N[C@@H](CCC(N)=O)C(=O)N1CCC[C@H]1C(=O)N[C@@H](CCC(=O)O)C(=O)N[C@H](C(=O)N[C@H](C(=O)N[C@@H](CC(=O)O)C(=O)O)[C@@H](C)O)[C@@H](C)O", "note": "[E7_11–21]", "values": [{"measurement": "IC50", "value": 2.37, "unit": "µM"}]}
{"smiles": "CSCC[C@H](NC(=O)[C@H](CC(C)C)NC(=O)[C@H](CC(C)C)NC(=O)[C@H](CC(=O)O)NC(=O)[C@H](CCC(=O)O)NC(=O)[C@H](CC(C)C)NC(=O)[C@@H](NC(=O)[C@@H](N)CCCNC(=N)N)[C@@H](C)O)C(=O)NCC(=O)N[C@H](C(=O)O)[C@@H](C)O", "note": "[E7_77–86]", "values": [{"measurement": "IC50", "value": 66.9, "unit": "µM"}]}
{"smiles": "CSCC[C@H](NC(=O)[C@H](Cc1ccc(O)cc1)NC(=O)[C@H](CCC(=O)O)NC(=O)[C@H](Cc1c[nH]cn1)NC(=O)[C@H](CC(C)C)NC(=O)[C@@H](N)[C@@H](C)O)C(=O)N[C@@H](CC(C)C)C(=O)N[C@@H](CC(=O)O)C(=O)N[C@@H](CC(C)C)C(=O)N[C@@H](CCC(N)=O)C(=O)N1CCC[C@H]1C(=O)O", "note": "[E7_7–17] (H-TLHEYMLDLQP-OH)", "values": [{"measurement": "IC50", "value": 19.3, "unit": "µM"}]}
{"smiles": "CSCC[C@H](NC(=O)[C@H](Cc1ccc(O)cc1)NC(=O)[C@@H](N)CCC(=O)O)C(=O)N[C@@H](CC(C)C)C(=O)N[C@@H](CC(=O)O)C(=O)N[C@@H](CC(C)C)C(=O)N[C@@H](CCC(N)=O)C(=O)N1CCC[C@H]1C(=O)N[C@@H](CCC(=O)O)C(=O)N[C@H](C(=O)O)[C@@H](C)O", "note": "[E7_10–19]", "values": [{"measurement": "IC50", "value": 45.3, "unit": "µM"}]}
{"smiles": "CSCC[C@H](N)C(=O)N[C@@H](CC(C)C)C(=O)N[C@@H](CC(=O)O)C(=O)N[C@@H](CC(C)C)C(=O)N[C@@H](CCC(N)=O)C(=O)N1CCC[C@H]1C(=O)N[C@@H](CCC(=O)O)C(=O)N[C@H](C(=O)O)[C@@H](C)O", "note": "[E7_12–19] (H-MLDLQPET-OH)", "values": [{"measurement": "IC50", "value": 53.7, "unit": "µM"}]}
{"smiles": "CC[C@H](C)[C@H](N)C(=O)N[C@@H](CCCNC(=N)N)C(=O)N[C@H](C(=O)N[C@@H](CC(C)C)C(=O)N[C@@H](CCC(=O)O)C(=O)N[C@@H](CC(=O)O)C(=O)N[C@@H](CC(C)C)C(=O)N[C@@H](CC(C)C)C(=O)N[C@@H](CCSC)C(=O)NCC(=O)N[C@H](C(=O)O)[C@@H](C)O)[C@@H](C)O", "note": "[E7_76–86] (H-IRTLEDLLMGT-OH)", "values": [{"measurement": "IC50", "value": 31.9, "unit": "µM"}]}
